The subject of data set [1] is HT-29 colon cancer cells. In words: Trypan blue assay, HT-29. Format: cell-based. The method, then:
(§1) A Trypan blue assay was conducted to determine the cytotoxicity of certain compounds of the invention towards cisplatin-sensitive (A2780) and -resistant (A2780Cis) ovarian, prostate (PC3) and colon (HT-29) cancer cells.
(§2) In order to determine the toxicity of the compounds, 5×10^4 cells per well were seeded into 24 well plates and allowed to grow for 24 hours. The cells were then treated with increasing concentrations of the compounds for 72 hours. […] The gold complexes were dissolved in DMSO immediately prior to the experiments (5 mM stock solutions). 0.25% DMSO in complete medium served as vehicle control. All treatments were performed using molar concentrations and each well received 1 mL of treatment in cell culture media (RPMI) containing 10% FBS and 1% penicillin and streptomycin. After 72 hours of treatment, the media was collected from each well in separate tubes in order to include dead cells in the cell count. Cells from the plate were removed using 200 μL of 0.25% Trypsin-EDTA for 3 minutes at 37° C. Trypsin was neutralised with the media originally removed from the cells and centrifuged at 1200 rpm for 5 minutes. The supernatant was discarded and the cells were resuspended in 100 μL of fresh complete media. From this, 20 μL of cell suspension was removed, mixed with an equal volume of Trypan Blue and the cells were counted using a haemocytometer.

Data set [2] concerns A2780Cis cisplatin resistant ovarian cancer cells. The data set is described as follows: Trypan blue assay, A2780Cis. The class given is cell-based. The method, then: as §1, §2
The subject of data set [3] is cisplatin-resistant ovarian cancer cells (A2780Cis). The data set is described as follows: Dose dependent study, trypan blue assay, A2780Cis. The class given is cell-based. The settings on record: at 0.39 μM, 72 hours treatment.
The test system of data set [4] is A2780 ovarian cancer cells. In words: Trypan blue assay, A2780. The class given is cell-based. The method, then:
as §1, §2

Data set [5] has as its system HeLa xenografts. In words: In vivo anti-tumour activity in mice xenograft model. Set-up: species or system BALB/c Nude mice. The settings on record: 1 mg/kg intraperitoneal, 42 days, nude mice bearing HeLa xenografts. The method, then:
The use of metal complexes or gold compounds in animal xenograft models has been previously described elsewhere for cervical cancer models or other tumour types. The efficacy of the newly synthesised novel gold compound in reducing tumour growth in cervical cancer models was tested as follows. […] Five-week-old female BALB/c Nude mice were used. HeLa tumour cells (5×10^6) resuspended in RPMI medium injected subcutaneously tumour cells in 100 μL of culture media using a 29-gauge insulin syringe into both ventral flanks, anterior to the hind leg. The mice were monitored twice daily for 48 hrs to determine if any unexpected adverse effects are observed. Tumours were allowed to establish to approximately 50 mm^3 (as determined using electronic callipers) and the mice were then randomly separated into three groups of 5.
From this stock solution, the final working concentrations for mice injections were prepared in PBS (Phosphate buffered saline, pH 7.4) with DMSO concentration not exceeding 3.6%.
Tumour volumes were measured 8 times during the 42-day period. All mice were culled after 42 days and the tumours were collected and weighed. All the animal experiments were performed in Biological Research Facility, Melbourne University according to the animal ethics number 1814422.

In data set [6] the test system is PC3 (prostate) cancer cells. The data set is described as follows: MTT assay (in vitro cytotoxicity), PC3. The class given is cell-based. As to conditions: ratio to cisplatin. The method, then:
(§3) For all the assays, unless otherwise mentioned, stock solutions of the metal compounds were freshly prepared in DMSO (10 mM) and 1% DMSO in complete medium was used as a control.
(§4) The MTT [3-(4,5-dimethylthiazol-2-yl)-2,5-diphenyltetrazolium bromide] assay is based on the conversion of a yellow coloured MTT solution to purple formazan crystals by the active mitochondrial dehydrogenases of viable cells. Thus, the intensity of the produced purple colour is proportional to the number of viable cells. The cells were seeded in 96 well plates depending on cellular doubling time and were treated with solutions of the metal compounds (100 μM, 10 μm, 1 μM, 0.1 μM, 0.01 μM) after overnight incubation. The cells were further incubated for 48 h and the medium containing the test compounds was removed before addition of 100 μL MTT solution (5 mg/mL) in serum-free medium. After 4 h incubation in the dark at 37° C., the excess MTT solution was removed from the wells and 100 μL of DMSO was added to each well to solubilise the formed formazan crystals. The absorbance of formazan solution from each well was recorded using a Spectramax micro titre plate reader at 570 and 630 nm. […] For all the assays, stock solutions of gold compounds were prepared in DMSO (10 mM) and the final treatment concentrations (100 μM-0.01 μM) were made in complete growth medium.
For orientation: Tetrazolium assays rely on reduction of a dye to a coloured formazan, in cell work by metabolically active cells.

Data set [7] concerns HT-1080 (bone, fibrosarcoma) cancer cells. The data set is described as follows: MTT assay (in vitro cytotoxicity), HT-1080. The class given is cell-based. As to conditions: ratio to cisplatin. The protocol:
as §3, §4

Data set [8] concerns HeLa (cervical) cancer cells. In words: MTT assay (in vitro cytotoxicity), HeLa. Format: cell-based. As to conditions: ratio to cisplatin. The protocol:
as §3, §4

A short description of data set [9]: MTT assay (in vitro cytotoxicity), HeK-293. As to conditions: human, HEK-293 (normal) embryonic kidney cells, 48 h incubation, mean ± SD of three experiments. Format: cell-based. The method, then:
as §3, §4

Data set [10] has as its system PC3 prostate cancer cells. In words: Trypan blue assay, PC3. Format: cell-based.

Where two headings read alike, the source gives them in different places.

Usually IC50 stands for the concentration that inhibits the measured activity by half.

Take `N.N.[Cl][Pt][Cl]` [Cisplatin]: the IC50 in data set [1] (Trypan blue, 72 hours treatment, read-out: In vitro cytotoxicity IC50, HT-29) was more than 25 µM; in data set [2] (Trypan blue, 72 hours treatment, read-out: In vitro cytotoxicity IC50, A2780Cis) it was more than 25 µM; in [4] (Trypan blue, 72 hours treatment, read-out: In vitro cytotoxicity IC50, A2780) it was 1.4 ± 0.13 µM. For the same compound, in data set [3], the “effect on cell viability” value is given as “no significant effect”. The tumour volume inhibition in [5] (compared to solvent control) is listed as 29%.
As to `S=P(c1ccccc1)(c1ccccc1)c1cccc[c]1[Au][PH]12CN3CN(CN(C3)C1)C2` [Compound 1, [Au(PTA){κC-2-C6H4P(S)Ph2}]], the “higher cytotoxicity than cisplatin against prostate cancer cells” value in [6] is recorded as 3.5 fold. In addition, the “higher cytotoxicity than cisplatin against bone cancer cells” value in [7] is recorded as 7.8 fold. In data set [8], the “higher cytotoxicity than cisplatin towards cervical cancer cells” value is recorded as “approximately 27 fold”. In [9], this compound yielded a concentration for half-maximal inhibition (IC50) at 48 h of 0.38 ± 0.11 µM. Further, the “mouse death or body weight loss after treatment” value in data set [5] is reported as “no mouse death or body weight loss”.
`S=P(c1ccccc1)(c1ccccc1)c1cccc[c]1[Au][P+](c1ccccc1)(c1ccccc1)c1ccccc1` [Compound 2, [Au(PPh3){κC-2-C6H4P(S)Ph2}]]: inhibition in data set [9] was half-maximal at 5.81 ± 0.35 µM (IC50 at 48 h).
As to `CC(=O)OC[C@H]1O[C@@H]([S-])[C@H](OC(C)=O)[C@@H](OC(C)=O)[C@@H]1OC(C)=O.CCP(CC)CC.[Au+]` [auranofin], the IC50 in data set [1] was determined as 0.51 µM; in [2], 0.71 ± 0.06 µM; in [4], 0.08 ± 0.01 µM; in [10], 0.44 ± 0.05 µM.
For the compound `COc1cc([C@@H]2c3cc4c(cc3[C@@H](O[C@@H]3O[C@@H]5CO[C@@H](C)O[C@H]5[C@H](O)[C@H]3O)[C@H]3COC(=O)[C@H]23)OCO4)cc(OC)c1O` [etoposide], the “effect on cell viability” value in [3] was “no significant effect”.

Values taken from patent publication US12152047B2, “Anti-cancer gold compounds” (Royal Melbourne Institute of Technology, priority 2019, dated 2024).
